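A five-concentration, 48-hour dose response in 96-well plates underlies each endpoint, interpolated linearly between surrounding concentrations. Definition used: TGI = concentration required for complete inhibition of growth.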
Legend:
Assay in all cases: NCI tumour cell line growth inhibition, 48 h
LXFL 529 NSCLC = test system: LXFL 529 NSCLC
DMS 114 small cell lung = test system: DMS 114 small cell lung
SNB-78 CNS = test system: SNB-78 CNS
P388 leukemia = test system: P388 leukemia
786-0 renal = test system: 786-0 renal

Row | SMILES | TGI (LXFL 529 NSCLC) | TGI (DMS 114 small cell lung) | TGI (SNB-78 CNS) | TGI (P388 leukemia) | TGI (786-0 renal)
1 | COc1ccc(/C=C(\C2=NC(=O)CS2)c2nc3ccccc3[nH]2)cc1 | > 100 µM | > 100 µM | > 100 µM |  | 
2 | COc1cccc2c1C(=O)c1c(O)c3c(c(O)c1C2=O)CC(O)(C(C)=O)CC3O (stereo not given) |  | 24.1 µM | 48 µM | 9.69 µM | 
3 | Cc1ccc(O)cc1 (tested in a mixture with another compound) |  |  |  |  | > 100 µM
4 | CN(C)CCNC(=O)c1cccc2[nH]c(-c3ccc(Cl)cc3)nc12 |  | 21.7 µM | 37.7 µM | 14.5 µM | 
5 | O=P(Nc1cccc(Cl)c1)(Oc1ccccc1)N(CCCl)CCCl (stereo not given) | 24.6 µM | 26.1 µM | 43.8 µM |  | 
6 | COCC1N=C(c2cc(OC)c(OC)c(OC)c2-c2cc3c(cc2[C@@H](C)O)OCO3)O[C@H]1c1ccccc1 (stereo not given in full) |  |  | > 87.4 µM | > 100 µM | 

Source: PubChem BioAssay (NCI)
